The results in this text go back to patent US20090143279A1 (priority 2007, published 2009).

Like-named read-outs stand apart in the source and are kept apart here.

Assay [1] concerns cellular dehydrogenase activity. Conditions: for MTT (composite Z-score): normalized score vs mock-treated (DMSO) wells.
In assay [2] the test system is mtOXPHOS transcripts. The format is cell-based, mouse. Conditions: for mitoOX (composite Z-score): normalized score vs mock-treated (DMSO) wells.
Assay [3] concerns C2C12 myotubes. Conditions: for Viability (composite Z-score): normalized score vs mock-treated (DMSO) wells.
Assay [4] has as its system OXPHOS gene expression. The format is cell-based, mouse. The settings on record: for GE-HTS (composite Z-score): normalized score vs mock-treated (DMSO) wells.
For assay [5], the system named is nuOXPHOS transcripts. It is filed as cell-based, mouse. Conditions: for nucOX (composite Z-score): normalized score vs mock-treated (DMSO) wells.
Assay [6] has as its system cytochrome c. It is filed as cell-based, mouse. The settings on record: for cyt c (composite Z-score): normalized score vs mock-treated (DMSO) wells.
For assay [7], the system named is mitochondrial membrane potential. The format is cell-based, mouse. The settings on record: for ΔΨm (composite Z-score): normalized score vs mock-treated (DMSO) wells.
Assay [8] concerns reactive oxygen species. It is filed as cell-based, mouse. Conditions: for ROS (composite Z-score): normalized score vs mock-treated (DMSO) wells.
The mark [9] stands for this setting: normalized composite Z-score vs mock-treated (DMSO) wells, Conc 20 μM.
Where [10] appears, read: composite Z-score vs DMSO, Conc 20 μM.
Where [11] appears, read: composite Z-score vs DMSO wells, Conc 20 μM.
The mark [12] stands for this setting: 20 μM, composite Z-score vs DMSO.
[13] abbreviates: composite Z-score vs mock-treated (DMSO) wells, concentration of each compound in μM.
Setting [14] is: composite Z-score vs mock-treated (DMSO) wells, Conc 20 μM.

For `CC1OC(OC2C(O)COC(OC3C(C)OC(OC4C(OC(=O)C56CCC(C)(C)CC5C5=CCC7C8(C)CCC(OC9OC(CO)C(O)C(O)C9O)C(C)(C)C8CCC7(C)C5(C)CC6O)OCC(O)C4O)C(O)C3O)C2O)C(O)C(O)C1O` (centres unmarked) [chrysanthellin A], the MTT in assay [1] (setting [9]) is given as −4.661. Further, the mitoOX in assay [2] (setting [9]) came to 0.474. In addition, the Viability in assay [3] (setting [9]) is −4.075. Besides, the GE-HTS in assay [4] (setting [9]) is listed as −0.126. In assay [5] (setting [9]), the nucOX is reported as −0.394. The compound further showed a cyt c in assay [6] (setting [9]) of −4.088. In addition, the ΔΨm in assay [7] (setting [9]) is −1.860. This compound also came in with an ROS in assay [8] (setting [9]) of −1.565.

Turning to `c1cncc(C2=NCCC2)c1` [myosmine], the “MTT (composite Z-score)” value in assay [1] (Conc 27.36 μM) is recorded as −1.423. Further, the “mitoOX (composite Z-score)” value in assay [2] (Conc 27.36 μM) is given as −0.195. Moreover, the “Viability (composite Z-score)” value in assay [3] (Conc 27.36 μM) was −0.497. Further, the “GE-HTS (composite Z-score)” value in assay [4] (Conc 27.36 μM) is 0.445. The “nucOX (composite Z-score)” value in assay [5] (Conc 27.36 μM) was 0.712. Moreover, in assay [6] (Conc 27.36 μM), the “cyt c (composite Z-score)” value stood at 1.184. Also, the “ΔΨm (composite Z-score)” value in assay [7] (Conc 27.36 μM) came out at 0.326. Moreover, the “ROS (composite Z-score)” value in assay [8] (Conc 27.36 μM) was determined as 1.543.

The compound `C[C@]12CC[C@H](O)C[C@@H]1CC[C@@H]1[C@@H]2CC[C@]2(C)[C@@H](O)CC[C@@H]12` [5alpha-androstan-3beta,17beta-diol] showed an MTT in assay [1] (setting [10]) of −0.454. In assay [2] (setting [10]), this compound gave a mitoOX of 0.270. For the same compound, the Viability in assay [3] (setting [10]) is −0.204. In assay [4] (setting [10]), this compound registered a GE-HTS of 0.123. The compound further displayed a nucOX in assay [5] (setting [10]) of 0.059. Also, the cyt c in assay [6] (setting [10]) amounted to 0.280. This compound gave a ΔΨm in assay [7] (setting [10]) of −1.116. In assay [8] (setting [10]), this compound had an ROS of 0.607.

Compound `CN(C)CCOC(=O)C(c1ccccc1)C1(O)CCCC1` (centres unmarked) [cyclopentolate] had an MTT in assay [1] (setting [11]) of −0.756. This compound gave a mitoOX in assay [2] (setting [11]) of −0.037. Also, the Viability in assay [3] (setting [11]) is given as −0.300. Further, in assay [4] (setting [11]), the GE-HTS is reported as 0.556. Besides, the nucOX in assay [5] (setting [11]) is 0.830. Further, the cyt c in assay [6] is 0.859; in assay [6] (setting [11]), −0.283. The compound also had a ΔΨm in assay [7] (setting [11]) of −0.072. The ROS in assay [8] (setting [11]) is −0.406.

As for `O=C1C(O)=C(O)C(=O)C(O)=C1O` [tetroquinone], in assay [1] (setting [11]), the MTT is reported as −0.574. In assay [2] (setting [11]), this compound returned a mitoOX of 0.112. The same compound had a Viability in assay [3] (setting [11]) of 0.088. For the same compound, the GE-HTS in assay [4] (setting [11]) is recorded as 0.067. The compound further had a nucOX in assay [5] (setting [11]) of 0.028. The cyt c in assay [6] (setting [11]) turned out to be 0.386. Further, the ΔΨm in assay [7] (setting [11]) was −0.424. In assay [8] (setting [11]), this compound gave an ROS of 0.638.

Compound `Cc1cc(C2CCCCC2)n(O)c(=O)c1` [ciclopirox olamine] registered an MTT in assay [1] (setting [12]) of −3.390. Moreover, the mitoOX in assay [2] (setting [12]) is on record as −0.569. This compound also registered a Viability in assay [3] (setting [12]) of −1.409. This compound came in with a GE-HTS in assay [4] (setting [12]) of −0.965. The same compound registered a nucOX in assay [5] (setting [12]) of −1.098. This compound also had a cyt c in assay [6] (setting [12]) of −0.381. Also, the ΔΨm in assay [7] (setting [12]) is 2.355. In assay [8] (setting [12]), this compound registered an ROS of −1.545.

Turning to `COc1ccc2c(c1)OCC(Cc1ccc(OC)c(OC)c1)C2=O` (centres unmarked) [deoxysappanone B trimethyl ether], the “MTT (composite Z-score)” value in assay [1] (Conc 20 μM) is recorded as −1.507. Moreover, the “mitoOX (composite Z-score)” value in assay [2] (Conc 20 μM) worked out at 0.613. Moreover, the “Viability (composite Z-score)” value in assay [3] (Conc 20 μM) was −0.068. Also, the “GE-HTS (composite Z-score)” value in assay [4] (Conc 20 μM) is listed as 0.993. In addition, the “nucOX (composite Z-score)” value in assay [5] (Conc 20 μM) was 1.050. Besides, the “cyt c (composite Z-score)” value in assay [6] (Conc 20 μM) was 0.336. The “ΔΨm (composite Z-score)” value in assay [7] (Conc 20 μM) is recorded as −0.194. In addition, the “ROS (composite Z-score)” value in assay [8] (Conc 20 μM) was 1.064.

Turning to `C[C@H]1CC[C@]2(NC1)O[C@H]1C[C@H]3[C@@H]4CC[C@H]5C[C@@H](O)CC[C@]5(C)[C@H]4CC[C@]3(C)[C@H]1[C@@H]2C` [tomatidine], in assay [1] (setting [10]), the MTT is listed as −1.376. The mitoOX in assay [2] (setting [10]) is reported as −0.857. This compound also registered a Viability in assay [3] (setting [10]) of 0.490. In assay [4] (setting [10]), the GE-HTS is on record as −1.375. This compound displayed a nucOX in assay [5] (setting [10]) of −1.473. Moreover, the cyt c was found to be 0.913 in assay [6] (setting [10]) and 1.135 in assay [6] (setting [13]). In assay [7] (setting [10]), this compound showed a ΔΨm of −0.425. For the same compound, the ROS in assay [8] (setting [10]) is on record as 1.323.

In turn, `NC(=O)c1cc([N+](=O)[O-])cc([N+](=O)[O-])c1` [nitromide] came in with an MTT in assay [1] (setting [12]) of −1.071. For the same compound, the mitoOX in assay [2] (setting [12]) is −0.086. The compound further registered a Viability in assay [3] (setting [12]) of −0.259. In addition, the GE-HTS in assay [4] (setting [12]) is recorded as −0.128. In addition, in assay [5] (setting [12]), the nucOX is listed as −0.100. Further, the cyt c in assay [6] (setting [12]) was −0.346. For the same compound, in assay [7] (setting [12]), the ΔΨm is 1.648. The compound also came in with an ROS in assay [8] (setting [12]) of 1.299.

In assay [1] (setting [10]), `COc1ccc2oc3ccccc3c(=O)c2c1` [2-methoxyxanthone] had an MTT of −1.044. In assay [2] (setting [10]), this compound came in with a mitoOX of 0.165. The same compound registered a Viability in assay [3] (setting [10]) of −0.428. This compound also had a GE-HTS in assay [4] (setting [10]) of −0.467. The nucOX in assay [5] (setting [10]) was −0.710. Also, in assay [6] (setting [10]), the cyt c was 1.007. Moreover, the ΔΨm in assay [7] (setting [10]) amounted to 0.540. In assay [8] (setting [10]), this compound displayed an ROS of 1.398.

As for `[H]/N=C(/N)NS(=O)(=O)c1ccc(N)cc1` [sulfaguanidine], in assay [1] (setting [11]), the MTT is recorded as −0.421. Also, the mitoOX in assay [2] (setting [11]) is listed as −0.556. The Viability in assay [3] (setting [11]) is reported as −0.691. In addition, the GE-HTS in assay [4] (setting [11]) is reported as −0.571. The nucOX in assay [5] (setting [11]) is reported as −0.522. The compound also displayed a cyt c in assay [6] (setting [11]) of 0.147. The same compound yielded a ΔΨm in assay [7] (setting [11]) of 0.217. In addition, the ROS in assay [8] (setting [11]) turned out to be 0.902.

`CC(=O)O[C@@H]1CC(=O)[C@@]2(C)C(CC(=O)[C@]3(C)C2CC[C@@]2(C)[C@H](c4ccoc4)OC(=O)C4OC423)C1(C)C` (some centres unmarked) [1,7-dideacetoxy-1,7-dioxokhivorin] showed an MTT in assay [1] (setting [14]) of −0.142. The mitoOX in assay [2] (setting [14]) is recorded as −0.355. Further, in assay [3] (setting [14]), the Viability worked out at 0.042. In assay [4] (setting [14]), this compound registered a GE-HTS of −0.558. The compound further showed a nucOX in assay [5] (setting [14]) of −0.585. The compound further had a cyt c in assay [6] (setting [14]) of 0.539. The same compound showed a ΔΨm in assay [7] (setting [14]) of −0.535. Further, the ROS in assay [8] (setting [14]) came out at 0.352.

In assay [1] (setting [10]), `CC1(C)O[C@H]2CC(=O)OC[C@]23[C@H]2CC[C@@]4(C)[C@H](c5ccoc5)OC(=O)[C@H]5O[C@]54[C@]2(C)C(=O)C[C@@H]13` [limonin] registered an MTT of −1.564. The same compound gave a mitoOX in assay [2] (setting [10]) of 0.127. Besides, the Viability in assay [3] (setting [10]) was −0.818. The same compound returned a GE-HTS in assay [4] (setting [10]) of −0.197. The same compound registered a nucOX in assay [5] (setting [10]) of −0.317. This compound gave a cyt c in assay [6] (setting [10]) of 0.042. This compound also showed a ΔΨm in assay [7] (setting [10]) of −0.668. The compound also had an ROS in assay [8] (setting [10]) of 1.165.

With `COc1cc(O)ccc1C(C)=O` [isopeonol], in assay [1] (setting [10]), the MTT is −0.831. In assay [2] (setting [10]), this compound had a mitoOX of −0.635. The Viability in assay [3] (setting [10]) is −1.180. In assay [4] (setting [10]), this compound gave a GE-HTS of −0.109. This compound also came in with a nucOX in assay [5] (setting [10]) of 0.134. The compound also displayed a cyt c in assay [6] (setting [10]) of 0.734. The same compound yielded a ΔΨm in assay [7] (setting [10]) of 0.271. In assay [8] (setting [10]), the ROS was −0.219.

As to `COc1ccc(-c2cc(=O)c3c(OC)cc(OC)c(-c4cc(-c5cc(=O)c6c(OC)cc(OC)cc6o5)ccc4OC)c3o2)cc1` [dioonflavone], the MTT in assay [1] (setting [13]) is −0.744. In addition, the mitoOX in assay [2] (setting [13]) was −0.969. Further, the Viability in assay [3] (setting [13]) is −0.003. In addition, the GE-HTS in assay [4] (setting [13]) is given as −0.471. For the same compound, the nucOX in assay [5] (setting [13]) was −0.204. In assay [6] (setting [13]), this compound had a cyt c of 0.605. The ΔΨm in assay [7] (setting [13]) was found to be 0.208. Besides, the ROS in assay [8] (setting [13]) is 0.650.
